Data on 14 compounds can be found in ChEMBL document CHEMBL3112456, “Dual inhibition of HCV and HIV by ring-expanded nucleosides containing the 5:7-fused imidazo[4,5-e][1,3]diazepine ring system. In vitro results and implications” (Bioorg Med Chem Lett, 2014).

Data set [1] concerns Hepacivirus hominis. Nature of the data set: Inhibition of helicase activity of HCV NTPase/helicase using radio-labelled double-stranded DNA as substrate up to 300 ug/ml after 30 mins.
Data set [2] concerns Hepacivirus hominis. Nature of the data set: Inhibition of helicase activity of HCV NTPase/helicase using radio-labelled double-stranded RNA as substrate up to 300 ug/ml after 30 mins.
For data set [3], the system named is Hepatitis C virus. Description: Antiviral activity against HCV infected in human Huh7 cells assessed as reduction in RNA level by luciferase reporter gene assay relative to control. Type of data set: functional. On the technique in general: In a reporter assay the amount or activity of a reporter protein is the signal.
In data set [4] the test system is Human immunodeficiency virus. Nature of the data set: Antiviral activity against HIV. Type of data set: functional, organism-based.
Data set [5] in a line: Selectivity index, ratio of beta-actin level in human HuH7 cells to viral RNA level in HCV infected in human Huh7 cells. Also on record: species or system Huh-7.
Data set [6] is described as follows: Inhibition of helicase activity of HCV NTPase/helicase using radio-labelled double-stranded DNA as substrate after 30 mins. Also on record: species or system Hepacivirus hominis.
The subject of data set [7] is Hepacivirus hominis. Description: Inhibition of helicase activity of HCV NTPase/helicase using radio-labelled double-stranded RNA as substrate after 30 mins.
For data set [8], the system named is Hepatitis C virus. Description: Antiviral activity against HCV genotype 1b infected in human BM4-5 cells reduction in RNA level after 5 days by luciferase reporter gene assay relative to control. Type of data set: functional, organism-based, Hepacivirus hominis. The note with it: BM4-5, 120 h.
The subject of data set [9] is Hepacivirus hominis. Nature of the data set: Inhibition of NTPase activity of HCV NTPase/helicase using 1 x 10^-5 M gamma-[32P]ATP as substrate up to 0.7 mM after 30 mins.
Another data set deals with Huh-7. Nature of the data set: Cytotoxicity against human HuH7 cells assessed as beta-actin levels relative to control. Type of data set: cell-based.
A short description of data set [10]: Cytotoxicity against human BM4-5 cells after 5 days by Neutral Red dye assay. The class given is cell-based. The note with it: bm4-5, 120 h.
Data set [11] has as its system Hepacivirus hominis. Description: Inhibition of NTPase activity of HCV NTPase/helicase using 105 microM gamma-[32P]ATP as substrate up to 0.7 mM after 30 mins.

SMILES strings stand for the structures. Values after ≈ are worked out from the molar mass of the structure shown. Active and inactive are the calls of the source. No cut-off for these calls is given here.

`CCCCCCCCCCNc1nc(=O)c2ncn([C@@H]3O[C@H](CO)[C@@H](O)[C@H]3O)c2c(=O)[nH]1`: the inhibition result in the data set with Hepacivirus hominis [1] and in the data set with Hepacivirus hominis [2] was “inactive” in each case.
Turning to `CCCCCCCCCCCCCCN`, the Activity result in the data set on Hepatitis C virus [3] (Hepacivirus hominis, Huh-7) is “inactive”; in [4], “inactive”.
In the case of `CCCCCCCCCCCCCCNc1nc(=O)c2ncn([C@@H]3C[C@H](O)[C@@H](CO)O3)c2c(=O)[nH]1`, the inhibition entry in the data set on Hepacivirus hominis [1] and in the data set with Hepacivirus hominis [2] was “inactive” in each case.
Turning to `CCCCCCCCCCNc1nc(=O)c2ncn([C@@H]3C[C@H](O)[C@@H](CO)O3)c2c(=O)[nH]1`, the inhibition result in the data set with Hepacivirus hominis [1] and in the data set on Hepacivirus hominis [2] was “inactive” in each case.
`CCCCCCCCCCCCCCCCCCN`: the Activity entry in the data set on Hepatitis C virus [3] (Hepacivirus hominis, Huh-7) was “inactive”; in data set [4], “inactive”.
With `CCCCCCCCNc1nc(=O)c2ncn([C@@H]3O[C@H](CO)[C@@H](O)[C@H]3O)c2c(=O)[nH]1`, the inhibition entry in the data set on Hepacivirus hominis [1] and with Hepacivirus hominis [2] was “inactive” throughout.
Take `CCCCCCCCCCCCCCNc1nc(=O)c2ncn([C@@H]3O[C@H](CO)[C@@H](O)[C@H]3O)c2c(=O)[nH]1`: the inhibition result with Hepacivirus hominis [1] and with Hepacivirus hominis [2] was “inactive” each time.
What is called IC50 is the concentration that gives 50% inhibition. In the case of `CCCCCCCCCCCCCCCCCCNc1nc(=O)c2ncn([C@@H]3O[C@H](CO)[C@@H](O)[C@H]3O)c2c(=O)[nH]1`, the “Selectivity Index” value in data set [5] turned out to be 10.89. For the same compound, the IC50 in [6] came to 6 µg/mL (≈ 10.6 µM); in the data set on Hepatitis C virus [8] it was 16 µM. The inhibition result in the data set with Hepacivirus hominis [7] is “Active”. Besides, the figures for the Activity (with Hepatitis C virus [3]; in the data set with Huh-7; in data set [10]) were 9%, 98% and “Non-toxic”, respectively. Besides, the inhibition entry in the data set with Hepacivirus hominis [9] and in the data set with Hepacivirus hominis [11] was “inactive” throughout.
For `CCCCCCCCCCCCCCCCNc1nc(=O)c2ncn([C@@H]3C[C@H](O)[C@@H](CO)O3)c2c(=O)[nH]1`, the inhibition entry in the data set with Hepacivirus hominis [1] and in the data set with Hepacivirus hominis [2] was “inactive” throughout.
Take `CCCCCCCCCCCCNc1nc(=O)c2ncn([C@@H]3O[C@H](CO)[C@@H](O)[C@H]3O)c2c(=O)[nH]1`: the inhibition result in the data set on Hepacivirus hominis [1] and with Hepacivirus hominis [2] was “inactive” each time.
As for `CCCCCCCCCCCCCCCCNc1nc(=O)c2ncn([C@@H]3O[C@H](CO)[C@@H](O)[C@H]3O)c2c(=O)[nH]1`, the inhibition result with Hepacivirus hominis [1] and in the data set on Hepacivirus hominis [2] was “inactive” in each case.
For `NC(=O)c1ncn([C@@H]2O[C@H](CO)[C@@H](O)[C@H]2O)n1` [RIBAVIRIN], in data set [5], the “Selectivity Index” value was determined as 0.14. Moreover, the Activity in the data set on Hepatitis C virus [3] was 89%; in the data set on Huh-7, 12%.
As to `CCCCCCCCCCCCCCCCCCNc1nc(=O)c2ncn([C@@H]3C[C@H](O)[C@@H](CO)O3)c2c(=O)[nH]1`, in [5], the “Selectivity Index” value is on record as 9.9. Further, the figures for the IC50 (in [6]; in the data set with Hepatitis C virus [8]) were 5.5 µg/mL (≈ 10 µM) and 18 µM, respectively. Besides, the inhibition entry in the data set with Hepacivirus hominis [7] is “Active”. In addition, the Activity with Hepatitis C virus [3] is listed as 10%; in the data set with Huh-7, 99%; in data set [10], “Non-toxic”. In addition, the inhibition entry in the data set with Hepacivirus hominis [9] and in the data set on Hepacivirus hominis [11] was “inactive” in each case.
Turning to `CCCCCCCCNc1nc(=O)c2ncn([C@@H]3C[C@H](O)[C@@H](CO)O3)c2c(=O)[nH]1`, the inhibition result with Hepacivirus hominis [1] and with Hepacivirus hominis [2] was “inactive” in each case.
